Test systems include COLO 205; HCC 2998; HCT-116; HOP-62; M19-MEL; NCI-H226; NCI-H460; OVCAR-3; OVCAR-4; OVCAR-8; SF-539; SNB-19; U-251; UACC-257; UACC-62; UO-31; SNB-75.
Common to all, as to assay: growth of human tumour cells (NCI), 48 h

Each structure is given as a SMILES string.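 Assay format: 96-well plates, 48-hour exposure. Abbreviation: GI50, concentration required for 50% inhibition of growth.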 Calls of active or inactive are those of the source. Rule as the data show it: active = GI50 up to about 1.1 µM and inactive = higher.

Take `CCCCOC(=O)NC(=O)c1cn(C2CCCCC2)c(=O)[nH]c1=O`: the GI50 with COLO 205 is > 100 µM (inactive); in the assay with HCC 2998, > 100 µM (inactive); in the assay with HCT-116 it was 21.5 µM (inactive); in the assay with HOP-62, 25.3 µM (inactive); with M19-MEL, 71.4 µM (inactive); in the assay on NCI-H226 it was 20.3 µM (inactive). In addition, the GI50 is > 100 µM (inactive) with NCI-H460; 40.6 µM (inactive) in the assay on OVCAR-3; 21.8 µM (inactive) in the assay on OVCAR-4; 42.9 µM (inactive) with OVCAR-8; 18.5 µM (inactive) with SF-539; 26.5 µM (inactive) in the assay on SNB-19. Further, the GI50 in the assay on U-251 is 28.4 µM (inactive); with UACC-257, > 100 µM (inactive); in the assay with UACC-62, 47.2 µM (inactive); with UO-31, 21.3 µM (inactive).
For `COc1ccccc1-n1c(N)c2c(C)c(-c3ccccc3)[nH]c2nc1=S`, the GI50 in the assay with COLO 205 is > 100 µM (inactive); in the assay with HCC 2998, > 100 µM (inactive); in the assay on HCT-116 it was > 100 µM (inactive); with HOP-62, > 100 µM (inactive); in the assay on M19-MEL, > 100 µM (inactive); with NCI-H226, 63 µM (inactive). Moreover, the GI50 in the assay on NCI-H460 was > 100 µM (inactive); in the assay with OVCAR-3 it was > 100 µM (inactive); in the assay with OVCAR-4, > 100 µM (inactive); with OVCAR-8, > 100 µM (inactive); in the assay on SF-539, 33.7 µM (inactive); in the assay on SNB-19, > 100 µM (inactive). The GI50 is 59.3 µM (inactive) in the assay on SNB-75; 54.3 µM (inactive) in the assay on U-251; > 100 µM (inactive) with UACC-257; 77.1 µM (inactive) in the assay with UACC-62; > 100 µM (inactive) with UO-31.
For `COc1ccc(OC2(c3cc(OC)ccc3OC)OC(=O)c3ccccc32)cc1` (stereo unspecified), the GI50 with COLO 205, in the assay with HCC 2998, with HCT-116, with HOP-62, in the assay with M19-MEL and in the assay on NCI-H226 was > 100 µM (inactive) each time. The GI50 in the assay with NCI-H460, with OVCAR-3, in the assay with OVCAR-4, in the assay on OVCAR-8, with SF-539 and in the assay on SNB-19 was > 100 µM (inactive) throughout. Moreover, the GI50 in the assay with SNB-75, in the assay on U-251, in the assay with UACC-257, with UACC-62 and in the assay on UO-31 was > 100 µM (inactive) in each case.
`CCOC(OC1=C(C#N)CCCC1)C(C)[Se]c1ccccc1` (stereo unspecified): the GI50 in the assay with COLO 205 is 39.7 µM (inactive); in the assay on HCC 2998, > 100 µM (inactive); in the assay on HCT-116, 30.1 µM (inactive); in the assay on HOP-62, 78.3 µM (inactive); with M19-MEL, 29.2 µM (inactive); with NCI-H226 it was 30.7 µM (inactive). Also, the GI50 with NCI-H460 was 54.1 µM (inactive); in the assay with OVCAR-3, 31.6 µM (inactive); in the assay with OVCAR-4, 21.7 µM (inactive); with OVCAR-8, 24.3 µM (inactive); in the assay with SF-539, 18.1 µM (inactive); in the assay on SNB-19 it was 54.5 µM (inactive). The GI50 in the assay with SNB-75 was 36.9 µM (inactive); in the assay with U-251 it was 13.4 µM (inactive); in the assay with UACC-257 it was 74.6 µM (inactive); with UACC-62, 19.2 µM (inactive); in the assay with UO-31 it was 43.6 µM (inactive).
As to `O=C(COC(=O)c1cccc2c(=O)c3ccccc3[nH]c12)Nc1ccccc1`, the GI50 with COLO 205 is 21.7 µM (inactive); in the assay on HCC 2998, > 100 µM (inactive); with HCT-116 it was 24.2 µM (inactive); in the assay on HOP-62 it was > 100 µM (inactive); in the assay on M19-MEL it was 33.6 µM (inactive); in the assay on NCI-H226, 33.3 µM (inactive). For the same compound, the GI50 with NCI-H460 was 94.6 µM (inactive); in the assay on OVCAR-3, 53.2 µM (inactive); in the assay on OVCAR-4, 45.6 µM (inactive); in the assay with OVCAR-8, 37 µM (inactive); in the assay with SF-539, 51.8 µM (inactive); in the assay with SNB-19, > 100 µM (inactive). For the same compound, the GI50 in the assay with SNB-75 was 31.8 µM (inactive); in the assay with U-251, 71.4 µM (inactive); in the assay on UACC-257, 38.2 µM (inactive); in the assay with UACC-62 it was 26.4 µM (inactive); in the assay with UO-31, 22.2 µM (inactive).
Consider `Cc1ccc(NC(=O)CC2C(=O)Nc3ccccc3[S+]2[O-])c(C)c1` (stereo unspecified), for which the GI50 was 7.52 µM (inactive) with COLO 205; 20 µM (inactive) in the assay on HCC 2998; 8.69 µM (inactive) in the assay on HCT-116; 16.4 µM (inactive) in the assay with HOP-62; 13.1 µM (inactive) with M19-MEL; 16.2 µM (inactive) with NCI-H226. For the same compound, the GI50 with NCI-H460 was 13 µM (inactive); with OVCAR-3 it was 9.51 µM (inactive); in the assay on OVCAR-4, 17.3 µM (inactive); in the assay on OVCAR-8, 16.9 µM (inactive); with SF-539, 12.9 µM (inactive); in the assay with SNB-19 it was 11.7 µM (inactive). The GI50 was 11.7 µM (inactive) in the assay with SNB-75; 10.8 µM (inactive) with U-251; 50.8 µM (inactive) in the assay with UACC-257; 7.23 µM (inactive) with UACC-62; 19.3 µM (inactive) in the assay on UO-31.
On to `N#Cc1c2c(c(N=[N+]=[N-])n3c1nc1ccccc13)CCCC2`, for which the GI50 in the assay with COLO 205 was 3.27 µM (inactive); in the assay on HCC 2998, 12.6 µM (inactive); in the assay with HCT-116, 1.43 µM (inactive); in the assay on HOP-62, 16.2 µM (inactive); in the assay on M19-MEL, 1.75 µM (inactive); in the assay with NCI-H226, 1.73 µM (inactive). For the same compound, the GI50 in the assay with NCI-H460 is 1.92 µM (inactive); in the assay on OVCAR-3, 3.37 µM (inactive); in the assay with OVCAR-4, 2.49 µM (inactive); in the assay on OVCAR-8 it was 1.69 µM (inactive); in the assay with SF-539 it was 1.93 µM (inactive); with SNB-19 it was 2.55 µM (inactive). The GI50 in the assay with SNB-75 is 1.97 µM (inactive); in the assay on U-251, 3.39 µM (inactive); in the assay with UACC-257 it was 1.71 µM (inactive); in the assay on UO-31, 1.94 µM (inactive).
Regarding `Cc1nc2c(n1Cc1ccc(Cl)cc1)C(=O)c1ccccc1C2=O`, the GI50 is > 75 µM (inactive) in the assay on COLO 205; > 75 µM (inactive) in the assay on HCC 2998; 2.6 µM (inactive) in the assay with HCT-116; 20.8 µM (inactive) with HOP-62; 11.7 µM (inactive) with M19-MEL; > 75 µM (inactive) with NCI-H226. Further, the GI50 in the assay on NCI-H460 was 1.75 µM (inactive); with OVCAR-3, 67.3 µM (inactive); in the assay on OVCAR-4 it was > 75 µM (inactive); in the assay with OVCAR-8, 8.99 µM (inactive); in the assay on SF-539, 2.48 µM (inactive); in the assay with SNB-19, > 75 µM (inactive). Besides, the GI50 in the assay with SNB-75 is 19.9 µM (inactive); in the assay on U-251, 3.48 µM (inactive); in the assay with UACC-257, > 75 µM (inactive); in the assay with UACC-62 it was 3.36 µM (inactive); in the assay on UO-31, > 75 µM (inactive).
For the compound `COC(=O)C(CCCN1C(=O)c2ccccc2C1=O)C(=O)OC`, the GI50 in the assay with COLO 205, with HCC 2998, in the assay on HCT-116, in the assay on HOP-62, in the assay with M19-MEL and with NCI-H226 was > 100 µM (inactive) throughout. Besides, the GI50 in the assay on NCI-H460, in the assay on OVCAR-3, with OVCAR-4, in the assay with OVCAR-8, in the assay on SF-539 and in the assay on SNB-19 was > 100 µM (inactive) each time. Also, the GI50 in the assay on SNB-75, in the assay on U-251, in the assay on UACC-257, in the assay on UACC-62 and in the assay on UO-31 was > 100 µM (inactive) throughout.
For `COc1cccc(NC(=O)/C(Cc2nc3ccccc3nc2C)=N/NC(=O)C[n+]2ccccc2)c1`, the GI50 in the assay on COLO 205 was 20.8 µM (inactive); in the assay on HCC 2998, > 100 µM (inactive); in the assay with HCT-116 it was 67.1 µM (inactive); in the assay on HOP-62, > 100 µM (inactive); in the assay on M19-MEL, > 100 µM (inactive); in the assay with NCI-H226, > 100 µM (inactive). In addition, the GI50 with NCI-H460 is 66.4 µM (inactive); with OVCAR-3 it was > 100 µM (inactive); in the assay with OVCAR-4 it was > 100 µM (inactive); in the assay with OVCAR-8, > 100 µM (inactive); in the assay with SF-539, > 100 µM (inactive); in the assay with SNB-19, > 100 µM (inactive). Further, the GI50 was > 100 µM (inactive) in the assay with SNB-75; 17.7 µM (inactive) with U-251; 45.4 µM (inactive) with UACC-257; > 100 µM (inactive) in the assay on UACC-62; > 100 µM (inactive) with UO-31.
For `C/C(CC(=O)Nc1ccc(Cl)c(Cl)c1)=N/NC(=O)C[N+](C)(C)C`, the GI50 in the assay with COLO 205 was 35.2 µM (inactive); in the assay with HCC 2998, > 100 µM (inactive); in the assay on HCT-116 it was > 100 µM (inactive); in the assay on HOP-62, > 100 µM (inactive); with M19-MEL, > 100 µM (inactive); with NCI-H226, > 100 µM (inactive). Besides, the GI50 in the assay on NCI-H460 was 65.2 µM (inactive); in the assay on OVCAR-3 it was > 100 µM (inactive); in the assay on OVCAR-4 it was > 100 µM (inactive); in the assay with OVCAR-8, > 100 µM (inactive); in the assay on SF-539, > 100 µM (inactive); in the assay with SNB-19, > 100 µM (inactive). Also, the GI50 in the assay on SNB-75, with UACC-257, in the assay on UACC-62 and in the assay on UO-31 was > 100 µM (inactive) in each case.
In the case of `COc1cc(C2c3cc4c(cc3[C@@H](OCCN)[C@H]3COC(=O)C23)OCO4)cc(OC)c1O` (stereo partly specified), the GI50 in the assay on COLO 205 was 1.7 µM (inactive); with HCC 2998 it was 0.671 µM (active); in the assay with HCT-116, 0.995 µM (active); with HOP-62, 0.069 µM (active); with M19-MEL, 0.196 µM (active); with NCI-H226, 0.0873 µM (active). Further, the GI50 is < 0.01 µM (active) with NCI-H460; 1.27 µM (inactive) in the assay with OVCAR-3; 2.05 µM (inactive) with OVCAR-4; 0.55 µM (active) with OVCAR-8; 0.105 µM (active) with SF-539; 0.104 µM (active) with SNB-19. The GI50 was 0.238 µM (active) in the assay with SNB-75; 0.0405 µM (active) in the assay on U-251; 1.24 µM (inactive) with UACC-257; 0.0843 µM (active) with UACC-62; 4.09 µM (inactive) with UO-31.
